Source: ChEMBL document CHEMBL4007403, “Identification of Triazolothiadiazoles as Potent Inhibitors of the dCTP Pyrophosphatase 1” (J Med Chem, 2017)
In brackets after ≈: the same amount, converted by molar mass.

Key:
[1] = Intracellular bioavailability in human HL60 cells assessed as ratio of fraction unbound in cells to intracellular drug accumulation at 0.5 uM after 45 mins by LC-MS/MS analysis; type: ADME; settings: hl-60, 0.75 h
[2] = Stability of the compound in biochemical assay buffer under mildly acidic mobile phase conditions by HPLC-MS analysis; type: physicochemical
[3] = Stability of the compound in biochemical assay buffer under basic mobile phase conditions by HPLC-MS analysis; type: physicochemical
[4] = Kinetic solubility of the compound; type: physicochemical; settings: read-out: Kinetic_solubility
[5] = Half life in mouse liver microsomes up to 100 uM preincubated for 10 mins followed by NADPH addition by UPLC-MS analysis; type: ADME, microsome
[6] = target: T1, dCTP pyrophosphatase 1 (Homo sapiens) (UniProt Q9H773)
T1 sequence (whole entry): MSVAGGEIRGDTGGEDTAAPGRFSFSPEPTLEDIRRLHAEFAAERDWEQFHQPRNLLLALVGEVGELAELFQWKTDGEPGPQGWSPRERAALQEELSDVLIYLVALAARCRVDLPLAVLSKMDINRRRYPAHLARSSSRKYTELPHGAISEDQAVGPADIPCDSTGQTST
Description: Binding affinity to recombinant human N-terminal His-tagged dCTPase 1 expressed in Escherichia coli BL21(DE3)pLysS assessed as change in melting temperature at 33 uM by Sypro Orange dye based DSF assay

[7] = Half life in human liver microsomes up to 100 uM preincubated for 10 mins followed by NADPH addition by UPLC-MS analysis; type: ADME, microsome
[8] = Hepatic extraction ratio in mouse liver microsomes up to 100 uM preincubated for 10 mins followed by NADPH addition by UPLC-MS analysis; type: ADME, microsome; settings: read-out: ERH
[9] = Hepatic extraction ratio in human liver microsomes up to 100 uM preincubated for 10 mins followed by NADPH addition by UPLC-MS analysis; type: ADME, microsome; settings: read-out: ERH
[10] = Stability of the compound in DMSO measured after several months by HPLC-MS analysis; type: physicochemical
dCTP pyrophosphatase 1 = target: T2, dCTP pyrophosphatase 1 (Homo sapiens, UniProt Q9H773); assay: Inhibition of recombinant human N-terminal His-tagged dCTPase 1 expressed in Escherichia coli BL21(DE3)pLysS using dCTP as substrate after 1 hr by malachite green reagent based assay
T2 sequence (Q9H773 whole entry): T1 sequence (whole entry)

HL-60 = assay: Cytotoxicity against human HL60 cells assessed as decrease in cell viability at 1 to 5 uM after 72 hrs by resazurin assay; type: cell-based; settings: hl-60, 72 h
[11] = target: T3, Nucleotide triphosphate diphosphatase NUDT15 (Homo sapiens, UniProt Q9NV35); assay: Inhibition of human His-tagged NUDT15 expressed in bacterial expression system after 1 hr by malachite green reagent based assay
T3 sequence (Q9NV35 whole entry): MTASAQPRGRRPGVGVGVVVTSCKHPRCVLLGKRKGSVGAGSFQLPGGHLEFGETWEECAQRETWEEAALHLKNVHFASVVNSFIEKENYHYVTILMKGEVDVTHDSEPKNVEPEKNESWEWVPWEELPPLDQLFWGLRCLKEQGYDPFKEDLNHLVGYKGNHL

[12] = target: T4, Uridine diphosphate glucose pyrophosphatase NUDT14 (Homo sapiens, UniProt O95848); assay: Inhibition of human His-tagged NUDT14 expressed in bacterial expression system after 1 hr by malachite green reagent based assay
T4 sequence (O95848 whole entry): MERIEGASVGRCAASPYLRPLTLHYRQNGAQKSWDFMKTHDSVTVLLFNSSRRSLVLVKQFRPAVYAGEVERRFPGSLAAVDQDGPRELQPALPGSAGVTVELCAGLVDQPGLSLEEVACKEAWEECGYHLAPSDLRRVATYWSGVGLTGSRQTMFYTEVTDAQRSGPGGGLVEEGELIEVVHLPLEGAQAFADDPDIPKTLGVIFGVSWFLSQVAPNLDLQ

[13] = target: Oxidized purine nucleoside triphosphate hydrolase (Homo sapiens, UniProt P36639); assay: Inhibition of recombinant human MTH1 using dGTP as substrate after 1 hr by malachite green reagent based assay
[14] = target: Bis(5'-nucleosyl)-tetraphosphatase [asymmetrical] (Homo sapiens, UniProt P50583); assay: Inhibition of NUDT2 (unknown origin) by malachite green reagent based assay
[15] = target: Inosine triphosphate pyrophosphatase (Homo sapiens, UniProt Q9BY32); assay: Inhibition of human His-tagged ITPase expressed in bacterial expression system after 1 hr by malachite green reagent based assay
[16] = target: ADP-sugar pyrophosphatase (Homo sapiens, UniProt Q9UKK9); assay: Inhibition of human His-tagged NUDT5 expressed in bacterial expression system in presence of ADP after 1 hr by malachite green reagent based assay
[17] = target: T5, ADP-ribose pyrophosphatase, mitochondrial (Homo sapiens, UniProt Q9BW91); assay: Inhibition of NUDT9 (unknown origin) by malachite green reagent based assay
T5 sequence (Q9BW91 whole entry): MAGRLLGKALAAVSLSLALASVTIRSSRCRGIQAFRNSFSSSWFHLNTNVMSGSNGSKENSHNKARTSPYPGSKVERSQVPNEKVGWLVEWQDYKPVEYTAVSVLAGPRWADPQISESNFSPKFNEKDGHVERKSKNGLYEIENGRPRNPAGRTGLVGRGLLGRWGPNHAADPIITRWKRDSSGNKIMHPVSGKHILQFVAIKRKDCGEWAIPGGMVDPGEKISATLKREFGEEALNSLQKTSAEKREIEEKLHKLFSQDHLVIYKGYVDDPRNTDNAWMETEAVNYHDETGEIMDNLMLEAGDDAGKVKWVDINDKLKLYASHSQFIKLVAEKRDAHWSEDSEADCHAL

[18] = Inhibition of human His-tagged dUTPase expressed in bacterial expression system after 1 hr by malachite green reagent based assay
[19] = Metabolic stability in human plasma after 4 hrs; type: ADME, cell-free; settings: read-out: Stability
[20] = Fraction unbound in human plasma; type: ADME, cell-free

Bis(5'-nucleosyl)-tetraphosphatase [asymmetrical], sequence (P50583 whole entry): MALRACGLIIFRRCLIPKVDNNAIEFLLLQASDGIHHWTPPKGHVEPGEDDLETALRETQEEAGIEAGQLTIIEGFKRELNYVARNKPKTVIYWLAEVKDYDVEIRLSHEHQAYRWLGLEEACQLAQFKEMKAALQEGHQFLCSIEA

SMILES	Stability [2]	Stability [3]	solubility kinetic [4] [µM]	half-life [5] [min]	half-life [7] [min]	hepatic extraction ratio [8]	hepatic extraction ratio [9]	Stability [10]	IC50 (dCTP pyrophosphatase 1) [nM]	other results
Cc1cc(-c2nn3c(-c4cccs4)nnc3s2)n[nH]1	Stable	Stable	58 (≈ 16.7 µg/mL)	2	14	0.97	0.79	Stable	> 10000	Ratio [1]: 0.78; ΔTm [6]: 0.9 °C
COc1ccc(-c2nn3c(-c4ccco4)nnc3s2)cc1OC	Stable	Stable	19 (≈ 6.24 µg/mL)	1	5	0.99	0.91	Stable	19	Activity (HL-60): Non-Toxic
COc1ccc(-c2nn3c(-c4cccs4)nnc3s2)cc1OC	Stable	Stable	3 (≈ 1.03 µg/mL)	1	4			Stable		IC50 [11]: > 100000 nM; IC50 [12]: > 100000 nM; IC50 [13]: > 100000 nM; IC50 [14]: > 100000 nM; IC50 [15]: > 100000 nM; IC50 [16]: > 100000 nM; Activity (HL-60): Non-Toxic; IC50 [17]: > 100000 nM; IC50 [18]: > 100000 nM
c1ccc(-c2nnc3sc(-c4ccc5c(c4)OCO5)nn23)nc1	Stable	Stable	25 (≈ 8.08 µg/mL)	1	3	0.99	0.96	Stable	190	Ratio [1]: 3.5; ΔTm [6]: 3.1 °C
COc1ccc(-c2nn3c(-c4ccccn4)nnc3s2)cc1OC	Stable	Stable	27 (≈ 9.16 µg/mL)	3	21	0.95	0.67	Stable	79 to 94	Ratio [1]: 0.15; remaining at 4 h [19]: 100%; ΔTm [6]: 9.4 °C; fraction unbound [20]: 0.063; Activity (HL-60): Non-Toxic
C(=C\c1cccnc1)/Cc1nn2c(-c3ccccc3)nnc2s1	Stable	Stable						Stable	558	
Brc1ccccc1-c1nn2c(-c3ccccn3)nnc2s1	Stable	Stable						Stable	328	
CCOc1ccc(-c2nn3c(-c4ccccn4)nnc3s2)cc1OCC	Stable	Stable						Stable	1170	
Brc1cccc(-c2nn3c(-c4ccccn4)nnc3s2)c1	Stable	Stable						Stable	602	
COc1cccc(-c2nnc3sc(-c4ccncc4)nn23)c1	Stable	Stable						Stable	1020	
Cc1cc(-c2nn3c(-c4ccccn4)nnc3s2)c2ccccc2n1	Stable	Stable						Stable	314	
c1csc(-c2nnc3sc(-c4cnccn4)nn23)c1	Stable	Stable	30 (≈ 8.59 µg/mL)	1	6	0.99	0.89	Stable	170	
c1coc(-c2nnc3sc(-c4ccc5ccccc5n4)nn23)c1	Stable	Stable						Stable	177	
Clc1ccc(-c2nn3c(-c4ccccn4)nnc3s2)c(Cl)c1	Stable	Stable						Stable	419	
Ic1ccccc1-c1nn2c(-c3ccccn3)nnc2s1	Stable	Stable						Stable	505	
